Results from patent publication US20060210622A1, “Surface modified particulate compositions of biologically active substances” (Skyepharma Canada Inc., priority 1999, published 2006).
In brackets after ≈: the same amount, converted by molar mass.

Legend:
physchem = format: physicochemical
Experimental: Solubility of biologically active substances, particularly drug substances in lipophilic and hydrophilic solvents. […] The solvents mentioned in the following table were evaluated. Solubilities, determined by high performance liquid chromatography (HPLC) assay of the dissolved drug in water and several non-aqueous vehicles, are given the following table in units of mg/mL. Low solubility of this drug in either water or organic solvents renders it suitable for formulating as a stable surface modified particulate dispersion in a non-aqueous carrier system.

[1] = Precipitation behavior of benzyl benzoate solution transferred to water, optical microscope under polarized light; format: physicochemical
Source text: A portion of the ursodiol solution in benzyl benzoate was transferred to water and shaken. A mixture containing oily droplets resulted. […] This observation makes it possible to further prepare compositions of ursodiol utilizing appropriate solvent system and surface active agents so that micron-sized particle will be generated spontaneously upon addition of these compositions in aqueous media.

Row | Solubility in pharmaceutically acceptable lipophilic vehicles (physchem) | solubility (physchem; water, Solubility of Itraconazole) [µg/mL] | Size of crystalline particles observed in the mixture ([1]; benzyl benzoate solution in water, optical microscope, polarized light) | Precipitation on transfer of solution to water ([1]; benzyl benzoate solution transferred to water and shaken) | Compound
1 | very poorly soluble | 10 (≈ 14.2 µM) |  |  | CCC(C)n1ncn(-c2ccc(N3CCN(c4ccc(OCC5COC(Cn6cncn6)(c6ccc(Cl)cc6Cl)O5)cc4)CC3)cc2)c1=O (stereo not shown) [Itraconazole]
2 |  |  | below 10 micron | No precipitation was seen occurring | C[C@H](CCC(=O)O)[C@H]1CC[C@H]2[C@@H]3[C@@H](O)C[C@@H]4C[C@H](O)CC[C@]4(C)[C@H]3CC[C@]12C [ursodiol]
